Data reported in PMC5719405, “Sex-related pharmacokinetic differences and mechanisms of metapristone (RU486 metabolite)” (Scientific Reports, 2017).
Where two headings read alike, the source gives them in different places.

Assays:
[1] = set-up: method as in PMID 22210121; settings: cited from earlier work
[2] = cited from earlier work
[3] = Metapristone metabolism in rat liver microsomes in the presence of specific CYP450 inhibitors; settings: inhibitor 10 µM, metapristone 9 µM, male or female rat liver microsomes, 120 min

Compound | effect of CYP inhibitor on metabolism rate of metapristone versus controls [3] | other results
CC#C[C@]1(O)CC[C@H]2[C@@H]3CCC4=CC(=O)CCC4=C3[C@@H](c3ccc(N(C)C)cc3)C[C@@]21C [mifepristone] | – | plasma protein binding rate [1]: 90%
CCCn1c(=O)c2[nH]c(C34CC5CC(CC3C5)C4)nc2n(CCC)c1=O [Rolofylline] | – | V d [2]: 239 L
Nc1ccc(S(=O)(=O)Nc2ccnn2-c2ccccc2)cc1 [sulfaphenazole] | No significant differences | –
C=C[C@H]1C[N@@]2CC[C@H]1C[C@@H]2[C@@H](O)c1ccnc2ccc(OC)cc12 [quinidine] | No significant differences | –
CCN(CC)CCCC(C)Nc1ccnc2cc(Cl)ccc12 (centres unmarked) [Chloroquine] | – | V d ([2]; literature example, no reference given): 15,000 L
O=c1cc(-c2ccccc2)oc2c1ccc1ccccc12 [α-naphthoflavone] | significantly prevented metapristone from degradation | –
CC[C@H]1OC(=O)[C@@](C)(F)C(=O)[C@H](C)[C@@H](O[C@@H]2O[C@H](C)C[C@H](N(C)C)[C@H]2O)[C@](C)(OC)C[C@@H](C)C(=O)[C@H](C)[C@H]2N(CCCCn3cc(-c4cccc(N)c4)nn3)C(=O)O[C@]12C [Solithromycin] | – | V d [2]: > 500 L
CC(=O)N1CCN(c2ccc(OCC3COC(Cn4ccnc4)(c4ccc(Cl)cc4Cl)O3)cc2)CC1 (centres unmarked) [ketoconazole] | significantly prevented metapristone from degradation | –
